Assays:
[1] = intravenous route; cited from earlier work
[2] = direct intracerebral administration; cited from earlier work
Slc:ICR mice = experiment: Phenylquinone writhing method; type: in vivo; settings: oral route; reference
Procedure: Phenylquinone writhing method
The compound (I) of the present invention was administered orally or subcutaneously to Slc:ICR mice weighing 18-20 g. According to the method of E. Siegmund, R. Cadmus and G. Lu [Proc. Soc.Exp.Biol, Med. 95, 729 (1957)], 0.02% phenylquinone in 5% ethanol saline was injected intraperitoneally in a dose of 0.1 ml/10 g body weight 30 min. after administration of the compound (I). The frequency of abdominal writhing was then counted for 20 min. Analgesic effect was indicated by comparing test group with control group.

Compound	analgesic effect [1]	morphinomimetic activity [2]	effective dose, analgesic activity (abdominal writhing) (Slc:ICR mice) [mg/kg]
H-Tyr-Gly-Gly-Phe-Met-OH (H-YGGFM-OH) [enkephalin, pentapeptide isolated from the pig brain]	do not produce analgesic effects	show morphinomimetic activity	
β-endorphin (YGGFMTSEKSQTPLVTLFKNAIIKNAYKKGE; Beta-endorphin; UniProt P01189 237-267, looked up) [polypeptide consisting of 31 amino acid moieties, peptide-type analgesic]	overt analgesic action		
CN1CC[C@]23c4c5ccc(O)c4O[C@H]2[C@@H](O)C=C[C@H]3[C@H]1C5 [morphine]			2.5
H-Tyr-Gly-Gly-Phe-Leu-OH	do not produce analgesic effects	show morphinomimetic activity	
